# Data: patent US6096930A, “Herbicidal cyclohexane-1,3-dione derivatives and their preparation process” (Korea Research Institute of Chemical Technology, priority 1994, dated 2000)
# Read-outs that look alike come from different tables or passages of the source.
# What was measured:
# Assay in all cases: Herbicidal activity for paddy test
# Assay type in all cases: in vivo
# ORYSA = conditions: for plant injury at 2 g/ha: 0.002 kg/ha; for plant injury at 8 g/ha: 0.008 kg/ha; for plant injury at 31 g/ha: 0.031 kg/ha; for plant injury at 125 g/ha: 0.125 kg/ha; for plant injury at 500 g/ha: 0.500 kg/ha
# In short: (§1)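 Paddy test species were sown in furrows in sterilized sandy loam soil filled into pots with a 115 cm^2 surface area. Herbicidal activity was scored visually as percent control, from 0 (no effect) to 100 (complete kill).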
# ECHOR = conditions: for pest or weed control at 2 g/ha: 0.002 kg/ha; for pest or weed control at 8 g/ha: 0.008 kg/ha; for pest or weed control at 31 g/ha: 0.031 kg/ha; for pest or weed control at 125 g/ha: 0.125 kg/ha; for pest or weed control at 500 g/ha: 0.500 kg/ha
# In short: as §1
# MOOVA = conditions: for pest or weed control at 2 g/ha: 0.002 kg/ha; for pest or weed control at 8 g/ha: 0.008 kg/ha; for pest or weed control at 31 g/ha: 0.031 kg/ha; for pest or weed control at 125 g/ha: 0.125 kg/ha; for pest or weed control at 500 g/ha: 0.500 kg/ha
# In short: as §1
# SCPJU = conditions: for pest or weed control at 2 g/ha: 0.002 kg/ha; for pest or weed control at 8 g/ha: 0.008 kg/ha; for pest or weed control at 31 g/ha: 0.031 kg/ha; for pest or weed control at 125 g/ha: 0.125 kg/ha; for pest or weed control at 500 g/ha: 0.500 kg/ha
# In short: as §1
# SAGPY = conditions: for pest or weed control at 2 g/ha: 0.002 kg/ha; for pest or weed control at 8 g/ha: 0.008 kg/ha; for pest or weed control at 31 g/ha: 0.031 kg/ha; for pest or weed control at 125 g/ha: 0.125 kg/ha; for pest or weed control at 500 g/ha: 0.500 kg/ha
# In short: as §1
# [1] = 3 Leaf, read-out: Herbicidal activity, ORYSA (3 Leaf)
# [2] = seed, read-out: Herbicidal activity, ORYSA (seed)
SMILES,plant injury at 2 g/ha (ORYSA; [1]) [%],plant injury at 8 g/ha (ORYSA; [1]) [%],plant injury at 31 g/ha (ORYSA; [1]) [%],plant injury at 125 g/ha (ORYSA; [1]) [%],plant injury at 500 g/ha (ORYSA; [1]) [%],plant injury at 2 g/ha (ORYSA; [2]) [%],plant injury at 8 g/ha (ORYSA; [2]) [%],plant injury at 31 g/ha (ORYSA; [2]) [%],plant injury at 125 g/ha (ORYSA; [2]) [%],plant injury at 500 g/ha (ORYSA; [2]) [%],pest or weed control at 2 g/ha (ECHOR) [%],pest or weed control at 8 g/ha (ECHOR) [%],pest or weed control at 31 g/ha (ECHOR) [%],pest or weed control at 125 g/ha (ECHOR) [%],pest or weed control at 500 g/ha (ECHOR) [%],pest or weed control at 2 g/ha (MOOVA) [%],pest or weed control at 8 g/ha (MOOVA) [%],pest or weed control at 31 g/ha (MOOVA) [%],pest or weed control at 125 g/ha (MOOVA) [%],pest or weed control at 500 g/ha (MOOVA) [%],other results
CCCC(=NOCC=CCl)C1=C(O)CC(c2c(C)c(C)c3c(c2C)CC(C)(C)C3)CC1=O (stereo not drawn) [Compound 9],0,0,0,0,0,0,0,0,70,100,0,50,100,100,100,0,0,0,0,0,pest or weed control at 2 g/ha (SCPJU): 0%; pest or weed control at 8 g/ha (SCPJU): 0%; pest or weed control at 31 g/ha (SCPJU): 0%; pest or weed control at 125 g/ha (SCPJU): 0%; pest or weed control at 500 g/ha (SCPJU): 0%; pest or weed control at 2 g/ha (SAGPY): 0%; pest or weed control at 8 g/ha (SAGPY): 0%; pest or weed control at 31 g/ha (SAGPY): 0%; pest or weed control at 125 g/ha (SAGPY): 0%; pest or weed control at 500 g/ha (SAGPY): 0%
C=CCON=C(CC)C1=C(O)CC(c2c(C)c(C)c3c(c2Cl)CC(C)(C)C3)CC1=O (stereo not drawn) [Compound 40],0,0,0,0,0,0,0,0,0,100,0,0,0,100,100,0,0,0,0,0,pest or weed control at 2 g/ha (SCPJU): 0%; pest or weed control at 8 g/ha (SCPJU): 0%; pest or weed control at 31 g/ha (SCPJU): 0%; pest or weed control at 125 g/ha (SCPJU): 0%; pest or weed control at 500 g/ha (SCPJU): 0%; pest or weed control at 2 g/ha (SAGPY): 0%; pest or weed control at 8 g/ha (SAGPY): 0%; pest or weed control at 31 g/ha (SAGPY): 0%; pest or weed control at 125 g/ha (SAGPY): 0%; pest or weed control at 500 g/ha (SAGPY): 0%
